Laboratory results reported in article PMC5843811, “^44Sc for labeling of DOTA- and NODAGA-functionalized peptides: preclinical in vitro and in vivo investigations” (EJNMMI Radiopharmacy and Chemistry, 2016).
Read-outs that look alike come from different tables or passages of the source.

How the values were obtained:
U87MG tumor-bearing mice = assay: PET/CT imaging of U87MG tumor-bearing mice; assay type: in vivo; conditions: 3 h after i.v. injection of ~10 MBq (~1 nmol), one or two mice
Method: The energy window was set to 150–650 keV. […] All static PET scans lasted for 20 min.

[1] = Biodistribution in U87MG tumor-bearing mice; assay type: in vivo; conditions: female, CD-1 nude (athymic nude), mouse, iv, total radioactivity, i.v. ~5 MBq (~1 nmol), mean ± SD; for tissue to tissue ratio at 0.5 h / tissue uptake at 0.5 h: 30 min p.i.; for tissue to tissue ratio at 5 h / tissue uptake at 5 h: 5 h p.i.
[2] = U87MG tumor / blood, n=3, read-out: Tumor-to-blood ratio
[3] = U87MG tumor / kidneys, n=3, read-out: Tumor-to-kidney ratio
[4] = U87MG tumor / liver, n=3, read-out: Tumor-to-liver ratio
[5] = U87MG tumor, n=3, read-out: Biodistribution, U87MG Tumor
[6] = blood, 5 MBq per mouse, n=3, read-out: Biodistribution, Blood
[7] = bone, 5 MBq per mouse, n=3, read-out: Biodistribution, Bone
[8] = brain, 5 MBq per mouse, n=3, read-out: Biodistribution, Brain
[9] = heart, 5 MBq per mouse, n=3, read-out: Biodistribution, Heart
[10] = intestines, 5 MBq per mouse, n=3, read-out: Biodistribution, Intestines
[11] = kidneys, n=3, read-out: Biodistribution, Kidneys
[12] = liver, n=3, read-out: Biodistribution, Liver
[13] = lung, 5 MBq per mouse, n=3, read-out: Biodistribution, Lung
[14] = muscle, 5 MBq per mouse, n=3, read-out: Biodistribution, Muscle
[15] = skin, 5 MBq per mouse, n=3, read-out: Biodistribution, Skin
[16] = spleen, 5 MBq per mouse, n=3, read-out: Biodistribution, Spleen
[17] = stomach, 5 MBq per mouse, n=3, read-out: Biodistribution, Stomach

Compound: N=C(N)NCCC[C@@H]1NC(=O)[C@H](CCCCNC(=O)CCC(C(=O)O)N2CCN(CC(=O)O)CCN(CC(=O)O)CC2)NC(=O)[C@@H](Cc2ccc(O)cc2)NC(=O)[C@H](CC(=O)O)NC(=O)CNC1=O (some centres unmarked) [^44Sc-NODAGA-RGD, metal not drawn]
- PET/CT distribution of radioactivity (in words) (U87MG tumor-bearing mice): comparable to ^68Ga-NODAGA-RGD but showed somewhat more background activity in the abdominal tract
- tissue to tissue ratio at 0.5 h [1, 2]: 4.73 ± 1.24
- tissue to tissue ratio at 5 h [1, 2]: 30.5 ± 9.93
- tissue to tissue ratio at 0.5 h [1, 3]: 1.18 ± 0.28
- tissue to tissue ratio at 2 h ([1]; U87MG tumor / kidneys, 2 h p.i., n=3, read-out: Tumor-to-kidney ratio): 2.68 ± 0.14
- tissue to tissue ratio at 5 h [1, 3]: 2.58 ± 0.24
- tissue to tissue ratio at 0.5 h [1, 4]: 3.02 ± 0.4
- tissue to tissue ratio at 5 h [1, 4]: 2.82 ± 0.21
- tissue uptake at 0.5 h [1, 5]: 4.5 ± 0.77 %ID/g
- tissue uptake at 5 h [1, 5]: 3.01 ± 0.55 %ID/g
- tissue uptake at 0.5 h [1, 6]: 0.98 ± 0.21 %ID/g
- tissue uptake at 5 h [1, 6]: 0.11 ± 0.07 %ID/g
- tissue uptake at 0.5 h [1, 7]: 1.53 ± 0.16 %ID/g
- tissue uptake at 5 h [1, 7]: 0.76 ± 0.03 %ID/g
- tissue uptake at 0.5 h [1, 8]: 0.1 ± 0.01 %ID/g
- tissue uptake at 5 h [1, 8]: 0.06 ± 0.01 %ID/g
- tissue uptake at 0.5 h [1, 9]: 0.89 ± 0.13 %ID/g
- tissue uptake at 2 h ([1]; heart, 5 MBq per mouse, 2 h p.i., n=3, read-out: Biodistribution, Heart): 0.44 ± 0.04 %ID/g
- tissue uptake at 5 h [1, 9]: 0.35 ± 0.13 %ID/g
- tissue uptake at 0.5 h [1, 10]: 1.76 ± 0.22 %ID/g
- tissue uptake at 2 h ([1]; intestines, 5 MBq per mouse, 2 h p.i., n=3, read-out: Biodistribution, Intestines): 0.91 ± 0.16 %ID/g
- tissue uptake at 5 h [1, 10]: 0.75 ± 0.13 %ID/g
- tissue uptake at 2 h ([1]; kidneys, 5 MBq per mouse, 2 h p.i., n=3, read-out: Biodistribution, Kidneys): 1.5 ± 0.3 %ID/g
- tissue uptake at 0.5 h [1, 11]: 3.89 ± 0.68 %ID/g
- tissue uptake at 5 h [1, 11]: < 2 %ID/g
- tissue uptake at 0.5 h [1, 12]: 1.49 ± 0.06 %ID/g
- tissue uptake at 2 h ([1]; liver, 2 h p.i., n=3, read-out: Biodistribution, Liver): 1.34 ± 0.27 %ID/g
- tissue uptake at 5 h [1, 12]: ~1 %ID/g
- tissue uptake at 0.5 h [1, 13]: 2.2 ± 0.68 %ID/g
- tissue uptake at 5 h [1, 13]: 0.65 ± 0.16 %ID/g
- tissue uptake at 0.5 h [1, 14]: 0.68 ± 0.03 %ID/g
- tissue uptake at 5 h [1, 14]: 0.3 ± 0.06 %ID/g
- tissue uptake at 2 h ([1]; pancreas, 5 MBq per mouse, 2 h p.i., n=3, read-out: Biodistribution, pancreas): 0.43 ± 0.04 %ID/g
- tissue uptake at 5 h ([1]; pancreas, 5 MBq per mouse, n=3, read-out: Biodistribution, pancreas): 0.37 ± 0.07 %ID/g
- tissue uptake at 0.5 h ([1]; pancreas, n=3, read-out: Biodistribution, pancreas): 0.73 ± 0.22 %ID/g
- tissue uptake at 0.5 h [1, 15]: 1.97 ± 0.17 %ID/g
- tissue uptake at 2 h ([1]; skin, 5 MBq per mouse, 2 h p.i., n=3, read-out: Biodistribution, Skin): 1.3 ± 0.13 %ID/g
- tissue uptake at 5 h [1, 15]: 1.21 ± 0.34 %ID/g
- tissue uptake at 0.5 h [1, 16]: 1.63 ± 0.21 %ID/g
- tissue uptake at 2 h ([1]; spleen, 5 MBq per mouse, 2 h p.i., n=3, read-out: Biodistribution, Spleen): 1.58 ± 0.31 %ID/g
- tissue uptake at 5 h [1, 16]: 0.95 ± 0.19 %ID/g
- tissue uptake at 0.5 h [1, 17]: 1.69 ± 0.16 %ID/g
- tissue uptake at 2 h ([1]; stomach, 5 MBq per mouse, 2 h p.i., n=3, read-out: Biodistribution, Stomach): 1.01 ± 0.32 %ID/g
- tissue uptake at 5 h [1, 17]: 0.8 ± 0.03 %ID/g
